{
  "source": "patent US20120315290A1",
  "about": "“INHIBITORS OF LL-37 MEDIATED IMMUNE REACTIVITY TO SELF NUCLEIC ACIDS” (BOARD OF REGENTS, THE UNIVERSITY OF TEXAS SYSTEM, priority 2006, published 2012)",
  "key": {"human genomic DNA": {"tested_on": "human genomic DNA", "experiment": "Complex formation with DNA (ethidium bromide intercalation, size exclusion HPLC)", "format": "binding", "description": "(A) Emission spectra of human genomic DNA intercalated with Ethimidium bromide in the presence of increasing doses of LL-37. (B) Size exclusion HPLC of LL-37 alone, mut-LL-37 alone or DNA premixed with LL-37 or mut-37. […] Absorbance scales are different to accommodate the DNA peak."}, "[1]": {"tested_on": "plasmacytoid dendritic cells (pDC)", "experiment": "IFN-α and cytokine production by purified human pDC (ELISA of supernatants)", "format": "cell-based"}, "B16 tumors": {"tested_on": "B16 tumors", "experiment": "Intratumoral or intramuscular injection, cytokine mRNA by real-time PCR", "format": "in vivo, C57BL/6 mice", "protocol": "[…] of LL-37, CpG-A or PBS alone was injected into B16 tumors grown for 7 days in Flt-L treated mice. Tumors were harvested after 6, 24, 48 and 72 h, total RNA was extracted and expression of indicated cytokines was measured by real-time PGR. Data represent expression relative to GAPDH RNA. Some mice were injected with […] of LL-37 for 3 times (t0, t24 and t48) and tumor was harvested at 72 h for RNA expression analysis.\nLL-37, CpG, or saline (PBS) was injected into B16 tumors grown for 7 days in Flt-L treated mice. Tumors were harvested after 6, 24, 48 and 72 h, total RNA was extracted and expression of indicated cytokines was measured by real-time PGR. Data represent expression relative to GAPDH RNA. Data is representative of 5 mice.\n[…] of LL-37 were injected into 7d-established B16 skin tumors and muscle tissue of the same mice. After 6 h tumor and muscle tissue were collected for RT-PCR analysis of IFN-a2 mRNA expression. Data represent expression relative to GAPDH RNA\nIn another set of experiments, 100 μg of LL-37, CpG-A or PBS alone was injected into B16 tumors grown for 7 days in Flt-L treated mice. Tumors were harvested after 6, 24, 48 and 72 h, total RNA was extracted and expression of indicated cytokines was measured by real-time PCR. […] Some mice were injected with 100 μg of LL-37 for 3 times (t0, t24 and t48) and tumor was harvested at 72 h or RNA expression analysis.\nIntratumoral injection of LL-37 into native unmodified B16 melanoma induces potent type I IFN expression. 3×10^5 native B16 melanoma cells were inoculated into C57BL/6 mice. After 7 days, tumors were injected with 100 μg of LL-37, 40 μg CpG-2216 (CpG-A), or saline (PBS). Because LL-37-DNA binding (which will occur in the tumor) is optimal at a 3:1-5:1 ratio, we injected approximately 3 times more LL-37 than CpG-DNA. Tumors were harvested at 6 h, 24 h, 48 h, and 72 h after injection and total RNA was isolated and processed. Expression of IFN-α2 mRNA was measured by real-time PCR and normalized for expression of GAPDH mRNA.\nLL-37 can induce type I IFN expression when injected into tumors but not into healthy tissue. Because LL-37 requires the presence of self-DNA released by dying cells to induce pDC activation to produce type I IFN, we next asked whether LL-37 could selectively induce type I IFN expression in tumors (containing a high degree of cells death) and not in healthy tissue. To address this question we injected LL-37 (100 μg) into subcutaneously implanted B16 tumors as well as healthy muscle tissue. 6 h after injection, tissues were collected and IFN-α2 mRNA expression was measured by real-time PCR, as described in C12."}, "U937": {"tested_on": "U937", "experiment": "Binding and protection of DNA released by dying tumor cells (electrophoresis of supernatants)", "format": "cell-based, human", "conditions": "irradiated tumor cells, 24 h culture", "protocol": "(a) U937 were UV-irradiated to induce apoptosis and cultured for 24 h, or rendered necrotic by repeated freeze/thaw cycles and stained with Annexin V and PI to visualize apoptosis and necrosis. (b) 5×10^6 live U937 cells (lines 1+2), or apoptotic UV-irradiated U937 (lines 3+4) were cultured for 24 h either alone or in the presence of LL-37 ([…]) before cell free supernatant was collected. U397 were also lyzed by freeze-thaw cycles to induce primary necrosis and cultured for 1 h either alone or in the presence of LL-37 ([…]) before cell free supernatant was collected. 20 ul of the supernatants in buffer were loaded onto 1% agarose gel and the electrophoresis was ran for 1.5 hrs at 100V. The image was acquired with a Biorad gel imaging system.\nLL-37 combined with dying tumor cells can bind tumor-derived self-DNA in-vitro. To test the ability of LL-37 to bind and protect self-DNA released by dying tumor cells, we generated apoptotic and necrotic tumor cells in the presence or absence of LL-37, and measured DNA contents in culture supernatants by electrophoresis. Primary necrosis induced by consecutive freeze and thaw cycles, and apoptosis with secondary necrosis induced by γ-irradiation at 20,000 rad followed by a 24 h culture (at 5×10^6 cells in 500 μl) were confirmed by Annexin plus PI staining (FIG. 26a)."}, "[2]": {"tested_on": "myeloid (monocyte-derived) DC", "experiment": "Myeloid DC maturation (CD80) and cytokine secretion", "format": "cell-based, human", "conditions": "RNA 10 μg ml^−1 premixed with LL-37 (10 μM), overnight culture", "protocol": "(§1) Myeloid (monocyte-derived) DC were stimulated with RNA isolated from U937 cells (human RNA) or a synthetic single-stranded RNA sequence derived from HIV (ssRNA40) and a known TL-7/8 ligand either alone (10 pg ml^−1) or after premixing with LL-37 (10 μM). (a) Maturation was assessed by flow cytometry analysis of CD80 after overnight culture.\nas §1, with “In a second set of experiments, myeloid” for “Myeloid”, “TLR-7/8” for “TL-7/8”, “μg” for “pg”, “μM).” for “μM). (a)”, “culture (FIG. 21A). Levels of TNF-α, IL-6, EL-12, and IL-23 were measured after overnight culture (FIG. 21B).” for “culture.”"}},
  "note": "“Also recorded” adds a separate entry of the source.",
  "data": [
    {"sequence": "LLGDFFRKSKEKIGKEFKRIVQRIKDFLRNLVPRTES [LL-37]", "values": [
      {"measurement": "Complex formation with DNA", "setting": "human genomic DNA", "value": "complexed with DNA"},
      {"measurement": "Clump formation of pDC", "setting": "[1]", "value": "induced pDC to form clumps"},
      {"measurement": "Maturation of pDC", "setting": "[1]; not shown", "value": "did not induce maturation of pDC"},
      {"measurement": "IFN-α2 mRNA expression in tumor compared to CpG-A", "setting": "B16 tumors; 100 μg LL-37 vs 40 μg CpG-2216", "value": "more potent then the expression induced by CpG-A"},
      {"measurement": "IFN-α2 mRNA expression in healthy muscle tissue", "setting": "B16 tumors; 100 μg injected, 6 h", "value": "not LL-37-injected healthy muscle tissue"},
      {"measurement": "IFN-α2 mRNA expression in B16 tumor", "setting": "B16 tumors; 100 μg intratumoral", "value": "induced potent IFN-α2 mRNA expression; also recorded: IFN-α2 mRNA expression only in LL-37-injected tumors"},
      {"measurement": "Expression of pro-inflammatory and T-cell-derived cytokines in tumor", "setting": "B16 tumors; 100 μg intratumoral, Flt-L treated mice, 6-72 h", "value": "induces expression of pro-inflammatory and T-cell-derived cytokines"},
      {"measurement": "DNA detected in culture supernatants of dying tumor cells", "setting": "U937", "value": "exclusively detected DNA in supernatants of irradiated tumor cells cultured with LL-37"},
      {"measurement": "Myeloid DC maturation and cytokine secretion", "setting": "[2]", "value": "converts self-RNA and viral RNA into activator of myeloid DC maturation and cytokine secretion"}
    ]}
  ]
}
